Assay results published in article PMC8351955, “Targeting Mycobacterium tuberculosis response to environmental cues for the development of effective antitubercular drugs” (PLoS Biology, 2021).
≈ marks a conversion by molar mass, not a printed value. Read-outs that look alike come from different tables or passages of the source.

Assays:
[1] = system: CDC1551(rv2390c′::GFP) reporter Mtb strain; conditions: pH 7
[2] = Mouse liver microsomal stability; format: in vitro ADME; conditions: mouse liver microsomes; read-out: half-life (t1/2) in mouse liver microsomes
Description: (§1) Assays examining mouse and human liver microsomal stability, kinetic aqueous solubility, mouse and human plasma protein binding and stability, and human cytochrome P450 inhibition characteristics of the compounds were run by BioDuro (San Diego, CA), using standard protocols as previously described [37]. hERG inhibition assays were also performed by BioDuro.

[3] = system: WT Mtb (Erdman) in primary murine BMDMs; assay: Primary murine bone marrow-derived macrophage infection, CFU; format: cell-based, Mycobacterium tuberculosis; conditions: 10 μM; for CFU/ml in BMDMs, average: Fig 1I
Description: C57BL/6J wild-type mice (Jackson Laboratories) were used for extraction of BMDMs. Cells were harvested and expanded in DMEM containing 10% FBS, 15% L-cell conditioned media, 2 mM L-glutamine, 1 mM sodium pyruvate, and penicillin/streptomycin as needed in a 37°C incubator in a 5% CO2 atmosphere. […] Macrophages were lysed with water containing 0.01% sodium dodecyl sulfate and a dilution series of the samples plated on 7H10 agar for CFU determination.

[4] = system: CDC1551(rv2390c′::GFP) reporter Mtb strain, response to high [Cl−]; assay: microbe, parasite or virus in culture; format: cell-based, Mycobacterium tuberculosis
[5] = system: Mtb growth in J774 macrophage-like cells; assay: J774 infection in 96-well plates, mKO fluorescence 6 days post-infection; format: cell-based, Mycobacterium tuberculosis; conditions: 6 days post-infection
Description: For J774 infection in 96-well plates, 1.8 × 10^5 J774 cells were seeded per well in 180 μl of J774 infection media 1 day prior to infection. On the day of the assay, log-phase Mtb constitutively expressing mKO were pelleted and resuspended in 1 ml basal uptake buffer, passed 6× through a tuberculin syringe with a 25 G × 5/8″ needle, then resuspended in J774 infection media to a final OD600 = 0.2. Media was removed from 96-well plate containing the J774 cells, with 140 μl of fresh J774 infection media added back to each well. A volume of 40 μl of the Mtb suspension at OD600 = 0.2 was added to each well, followed by addition of appropriate concentration of compound or DMSO in a 20-μl final volume in J774 infection media (compound final concentration 10 μM, rifampicin final concentration 5 μM, DMSO final concentration 0.1%/well). Bacterial mKO fluorescence was read immediately after infection using a Biotek Synergy Neo2 microplate reader (bottom read monochromator, excitation 543/10 nm, emission 565/10 nm), and again 6 days post-infection. Plates were kept in humidified ziplock bags in a 37°C, 5% CO2 incubator. mKO fluorescence in DMSO-treated control samples were defined as 100% growth, and fluorescence observed in treatment conditions calculated as a percentage from that set value.

[6] = system: Mtb growth in J774 murine macrophage-like cells; assay: microbe, parasite or virus in culture; format: cell-based, Mycobacterium tuberculosis; conditions: for NPI (Mtb growth in J774 cells), average: Fig 1F
[7] = system: CDC1551(rv1405c′::GFP) reporter Mtb strain; assay: microbe, parasite or virus in culture; format: cell-based, Mycobacterium tuberculosis; conditions: for NPA - rv1405c'::GFP, average: Fig 1D
[8] = Pharmacokinetic assay, single oral dose in CD-1 mice; format: in vivo; conditions: female, mouse, plasma; CD-1 mice, single 5 mg/kg po dose; read-out: plasma AUC0–5h
Description: Blood samples were collected in K2EDTA-coated tubes predose, 0.5, 1, 3, and 5 hours post-dose, placed on ice, and centrifuged to recover plasma. The recovered plasma was kept at −80°C as needed prior to analysis, which was performed as previously described. In brief, a Sciex Applied Biosystems Qtrap 4000 triple-quadrupole mass spectrometer coupled to an Agilent 1260 HPLC system was used for HPLC coupled to tandem mass spectrometry (LC–MS/MS) quantitative analysis of the samples, with chromatography attained using an Agilent Zorbax SB-C8 column (2.1 × 30 mm; particle size, 3.5 μm) and a reverse-phase gradient elution. The aqueous mobile phase consisted of Milli-Q deionized water with 0.1% formic acid (A), while the organic mobile phase was 0.1% formic acid in acetonitrile (B). The gradient setup was as follows: 5% to 90% B over 2 minutes, 1 minute at 90% B, then an immediate drop to 5% B and an additional 1 minute at 5% B. Quantification of molecules was carried out via multiple reaction monitoring of parent/daughter transitions in electrospray positive ionization mode, and sample analyses accepted if quality control and standard samples had concentrations within 20% of the nominal concentration. Preparation of compounds for generation of standard curves and quality control spiking solutions were performed as previously described. Data were processed using Analyst software (Version 1.6.2; Applied Biosystems Sciex, Framingham, MA).

[9] = system: CDC1551(rv2390c′::GFP) reporter Mtb strain; assay: microbe, parasite or virus in culture; conditions: Mycobacterium tuberculosis, 216 h
[10] = Kinetic aqueous solubility; format: physicochemical; conditions: pH 7.4 phosphate buffered saline; read-out: kinetic aqueous solubility (S)
Description: as §1

For `O=C(c1cnc2ccccn12)N1CCCC(CCc2cccc(C(F)(F)F)c2)C1` (stereo not shown) [C5, FC(F)(F)C1=CC=CC(CCC2CCCN(C2)C(=O)C2=CN=C3C=CC=CN23)=C1], the “Ability to increase rv2390c′::GFP reporter signal in high [Cl−]” value [1] was “increased rv2390c′::GFP reporter signal”, the half-life [2] was 4.98 min and the “Effect on bacterial load / Mtb growth in primary murine BMDMs” value ([3]; 8-day infection time course, vs DMSO) was “significant decrease in bacterial load”. For the same compound, the “CFU/ml in BMDMs, average” value ([3]; day 2) was 152000 CFU/ml, the “CFU/ml in BMDMs, average” value ([3]; day 4) was 191000 CFU/ml and the “CFU/ml in BMDMs, average” value ([3]; day 6) was 264500 CFU/ml. The “CFU/ml in BMDMs, average” value ([3]; day 8) was 318000 CFU/ml, the “NPA - rv2390c'::GFP, average” value ([4]; 0.0390625 µM, Fig 1C) was 99.0333% and the “NPA - rv2390c'::GFP, average” value ([4]; 0.078125 µM, Fig 1C) was 96.3333%. The “NPA - rv2390c'::GFP, average” value ([4]; 0.15625 µM, Fig 1C) was 99.1%, the “NPA - rv2390c'::GFP, average” value ([4]; 0.3125 µM, Fig 1C) was 113.667% and the “NPA - rv2390c'::GFP, average” value ([4]; 0.625 µM, Fig 1C) was 116.667%. The “NPA - rv2390c'::GFP, average” value ([4]; 1.25 µM, Fig 1C) was 131.667%, the “NPA - rv2390c'::GFP, average” value ([4]; 2.5 µM, Fig 1C) was 132.333% and the “NPA - rv2390c'::GFP, average” value ([4]; 5 µM, Fig 1C) was 137%. The “NPA - rv2390c'::GFP, average” value ([4]; 10 µM, Fig 1C) was 131.333%, the “NPA - rv2390c'::GFP, average” value ([4]; 20 µM, Fig 1C) was 142.333% and the activity at 10 µM ([4]; Mycobacterium tuberculosis, 144 h, pH 6.4, […], DMSO positive control = 100%, read-out: Primary screen rv2390c'::GFP NPA%) was 182%. It also gave an activity at 10 µM ([4]; Mycobacterium tuberculosis, 144 h, 10 µM, pH 6.4, 250 mM NaCl, 6 days, read-out: rv2390c'::GFP validation assay NPA% at 10 µM compound) of 131 ± 9.8%, an activity at 20 µM ([4]; Mycobacterium tuberculosis, 144 h, 20 µM, pH 6.4, 250 mM NaCl, 6 days, read-out: rv2390c'::GFP validation assay NPA% at 20 µM compound) of 142 ± 4.2% and an AC50 ([4]; Mycobacterium tuberculosis, 144 h, pH 6.4, 250 mM NaCl, 6 days, Fig 1C, read-out: AC50 (activatory concentration, 50%), rv2390c′::GFP) of 0.5 µM. For the same compound, the “% growth of Mtb in J774 cells, average” value ([5]; 10 μM compound, DMSO = 100%, Fig 1H) was 37.9568%, the “Inhibition of Mtb growth in J774 cells” value ([5]; 10 μM) was “Mtb growth inhibition” and the “NPI (Mtb growth in J774 cells), average” value ([6]; 0.078125 µM, 5 µM rifampicin = 100% inhibition) was -6.175%. For the same compound, the “NPI (Mtb growth in J774 cells), average” value ([6]; 0.15625 µM) was 0.5445%, the “NPI (Mtb growth in J774 cells), average” value ([6]; 0.3125 µM) was -0.235% and the “NPI (Mtb growth in J774 cells), average” value ([6]; 0.625 µM) was 9.79%. For the same compound, the “NPI (Mtb growth in J774 cells), average” value ([6]; 1.25 µM) was 32.35%, the “NPI (Mtb growth in J774 cells), average” value ([6]; 2.5 µM) was 39.55% and the “NPI (Mtb growth in J774 cells), average” value ([6]; 5 µM) was 48.4%. The “NPI (Mtb growth in J774 cells), average” value ([6]; 10 µM) was 50.85%, the “NPI (Mtb growth in J774 cells), average” value ([6]; 20 µM) was 55% and the inhibition at 10 µM ([6]; Mycobacterium tuberculosis, J774, 144 h, read-out: J774 tertiary assay % inhibition compared to Rif at 10 µM compound) was 50.9 ± 3.2%. For the same compound, the inhibition at 20 µM ([6]; Mycobacterium tuberculosis, J774, 144 h, read-out: J774 tertiary assay % inhibition compared to Rif at 20 µM compound) was 55 ± 5.8%, the “NPA - rv1405c'::GFP, average” value ([7]; 0.0390625 µM) was 91.05% and the “NPA - rv1405c'::GFP, average” value ([7]; 0.078125 µM) was 91.6%. The “NPA - rv1405c'::GFP, average” value ([7]; 0.15625 µM) was 98.45%, the “NPA - rv1405c'::GFP, average” value ([7]; 0.3125 µM) was 118% and the “NPA - rv1405c'::GFP, average” value ([7]; 0.625 µM) was 125%. The “NPA - rv1405c'::GFP, average” value ([7]; 1.25 µM) was 130%, the “NPA - rv1405c'::GFP, average” value ([7]; 2.5 µM) was 114.5% and the “NPA - rv1405c'::GFP, average” value ([7]; 5 µM) was 132.5%. The “NPA - rv1405c'::GFP, average” value ([7]; 20 µM) was 145.5%, the activity at 10 µM ([7]; Mycobacterium tuberculosis, read-out: rv1405c'::GFP secondary assay NPA% at 10 µM compound) was 135 ± 14.8% and the activity at 20 µM ([7]; Mycobacterium tuberculosis, read-out: rv1405c'::GFP secondary assay NPA% at 20 µM compound) was 147 ± 7%. For the same compound, the AUC(0-t) [8] was 0.042 µg·h/mL, the fold induction at 10 µM ([9]; pH 7, read-out: Fold induction of rv2390c′::GFP reporter, average) was 6.34 and the fold induction at 10 µM ([9]; read-out: Fold induction of rv2390c′::GFP reporter, average) was 5.92. For the same compound, the solubility kinetic [10] was 6.67 µM (≈ 2.68 µg/mL).
